The nature of series [1]: Metabolic stability in mouse liver microsomes assessed as unbound intrinsic clearance. The format is ADME, Microsome.
The subject of series [2] is NCI-H1703. The experiment in a line: Induction of ferroptosis in human NCI-H1703 cells assessed as cell viability incubated for 72 hrs by CellTiter-Glo luminescent cell viability assay. The format is functional, cell-based. Particulars: NCI-H1703, 72 h.
A short description of series [3]: Stability in mouse plasma assessed as half life. The format is ADME, cell-free.
Series [4] in a line: Stability in human plasma assessed as half life. The series is classed as ADME, cell-free.
Series [5] concerns NCI-H1703. Description: Induction of ferroptosis in human NCI-H1703 cells assessed as cell viability incubated for 72 hrs in presence of ferrostatin-1 by CellTiter-Glo luminescent cell viability assay. The format is functional, cell-based. Particulars: NCI-H1703, 72 h.
Series [6] can be described thus: Metabolic stability in human liver microsomes assessed as unbound intrinsic clearance. The format is ADME, Microsome.
Series [7] is described as follows: Plasma clearance in iv dosed mouse. The series is classed as ADME, organism-based.
A short description of series [8]: Unbound fraction in human plasma. The series is classed as ADME, cell-free.
Series [9] in a line: Cmax in CB17 SCID-Beige mouse subcutaneously inoculated with WSUDLCL2 cells at 30 mg/kg, ip. The format is ADME, organism-based. Details: dose 30 mg/kg, route ip. The note with it: in vivo.
Series [10] in a line: Half life in CB17 SCID-Beige mouse subcutaneously inoculated with WSUDLCL2 cells at 30 mg/kg, ip. The format is ADME, organism-based. The note with it: in vivo.
A short description of series [11]: Aqueous solubility of the compound at pH 7. The format is physicochemical.
Series [12] in a line: Aqueous solubility of the compound at pH 1. The series is classed as physicochemical.
A short description of series [13]: AUC in CB17 SCID-Beige mouse subcutaneously inoculated with WSUDLCL2 cells at 30 mg/kg, ip. The format is ADME, organism-based. Also on record: dose 30 mg/kg, route ip. The note with it: in vivo.
In series [14] the target is Phospholipid hydroperoxide glutathione peroxidase GPX4 (Mus musculus) (UniProt O70325). The experiment in a line: Target engagement at GPX4 in mouse 4T1 cells assessed as mass change between covalently bound protein and unbound protein at 0.01 to 1 ug/ml measured after 2 hrs by Western blot analysis. The series is classed as cell-based. Particulars: dose 0.01-1 µg/ml.
Sequence of Phospholipid hydroperoxide glutathione peroxidase GPX4 (Mus musculus) (O70325 whole entry): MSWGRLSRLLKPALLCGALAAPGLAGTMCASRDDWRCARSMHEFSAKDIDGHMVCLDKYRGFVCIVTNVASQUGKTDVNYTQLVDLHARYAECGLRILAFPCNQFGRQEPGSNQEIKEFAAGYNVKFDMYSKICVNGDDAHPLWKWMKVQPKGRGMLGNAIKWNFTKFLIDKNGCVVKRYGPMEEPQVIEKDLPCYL

The nature of series [15]: Unbound fraction in mouse plasma. The format is ADME, cell-free.

Results on 23 compounds are retold here after ChEMBL document CHEMBL5375942, “Discovery of a Potent Chloroacetamide GPX4 Inhibitor with Bioavailability to Enable Target Engagement in Mice, a Potential Tool Compound for Inducing Ferroptosis In Vivo” (J Med Chem, 2023).

Active and inactive are the calls of the source. No cut-off for these calls is given here.

In the case of `COC(=O)[C@H]1Cc2c([nH]c3ccccc23)[C@H](c2ccc(S(C)(=O)=O)cn2)N1C(=O)CCl`, the CL free in [1] worked out at 348 mL/min/kg; in series [6], 35 mL/min/kg. Further, the half-maximal effective concentration (EC50) in series [2] was 973 nM; in series [5], more than 10000 nM. Further, the half-life is 1.33 h in series [3] and 4.03 h in series [4].

Take `COC(=O)[C@H]1Cc2c([nH]c3ccccc23)[C@H](c2cccc(S(C)(=O)=O)c2)N1C(=O)CCl`: the results for the CL free in series [1] and in series [6] were 563 mL/min/kg and 45 mL/min/kg, respectively. Moreover, the figures for the 50% effective concentration (EC50) in series [2] and in series [5] were 570 nM and 5660 nM, respectively. Also, the half-life in series [3] stood at 0.167 h; in series [4], 4.23 h.

For the compound `COC(=O)[C@H]1Cc2c([nH]c3ccccc23)[C@H](c2ccc(F)cc2F)N1C(=O)CCl`, the EC50 in series [2] was found to be 107 nM; in series [5] it was 3950 nM.

With `COC(=O)[C@H]1Cc2c([nH]c3ccccc23)[C@H](c2ccccc2)N1C(C)=O`, the CL free in series [1] was determined as 2682 mL/min/kg; in series [6], 183 mL/min/kg. Further, the half-life in series [3] is 13.7 h; in series [4], more than 16 h. The compound also showed a clearance in [7] of 50 mL/min/kg.

Turning to `COC(=O)[C@H]1Cc2c([nH]c3ccccc23)[C@H](c2ccc(OC)cc2)N1C(=O)CCl`, the CL free was 2050 mL/min/kg in [1] and 375 mL/min/kg in series [6]. For the same compound, the concentration for a half-maximal effect (EC50) was 127 nM in series [2] and more than 10000 nM in series [5]. In addition, the half-life in series [3] is 4.02 h; in [4] it was 13 h. The compound also came in with a fraction unbound in [8] of 0.068.

With `Cc1noc([C@H]2Cc3c([nH]c4ccccc34)[C@H](c3ccc(S(C)(=O)=O)cc3)N2C(=O)CCl)n1`, the CL free in series [1] stood at 243 mL/min/kg; in [6], 31.7 mL/min/kg. The EC50 in [2] came out at 37 nM; in series [5], 2340 nM. Further, the half-life was 1.85 h in series [3] and 2.92 h in series [4].

As to `COC(=O)c1ccc([C@H]2c3[nH]c4ccccc4c3CCN2C(=O)CCl)cc1`, in series [2], the EC50 came to 1390 nM. Further, the values for the half-life in series [3] and in [4] were 0.2 h and 1 h, respectively.

In the case of `C=CC(=O)N1[C@@H](c2ccccc2)c2[nH]c3ccccc3c2C[C@@H]1C(=O)OC`, the CL free stood at 905 mL/min/kg in series [1] and 76.7 mL/min/kg in [6]. In addition, the EC50 in series [2] was more than 10000 nM. The half-life is 1.05 h in series [3] and 0.933 h in series [4].

Turning to `COC(=O)[C@H]1Cc2c([nH]c3ccccc23)[C@H](c2ccc(OC(F)(F)F)cc2)N1C(=O)CCl`, the EC50 in series [2] stood at 75 nM; in [5], 4270 nM.

`C#CC(=O)N1[C@@H](c2ccccc2)c2[nH]c3ccccc3c2C[C@@H]1C(=O)OC`: in series [2], the 50% effective concentration (EC50) worked out at 157 nM. Besides, the half-life in series [3] came out at 0.317 h; in series [4] it was 0.4 h.

As for `COC(=O)[C@H]1Cc2c([nH]c3ccccc23)[C@H](Cc2ccccc2)N1C(=O)CCl`, the CL free turned out to be 4725 mL/min/kg in series [1] and 477 mL/min/kg in [6]. Moreover, the figures for the EC50 in [2] and in [5] were 984 nM and more than 10000 nM, respectively. Further, the half-life was 2.7 h in series [3] and 6.1 h in series [4]. In addition, the fraction unbound in series [8] came to 0.026.

On to `COC(=O)[C@H]1Cc2c([nH]c3ccccc23)[C@H](c2ccc(C(F)(F)F)cc2)N1C(=O)CCl`, for which the results for the CL free in [1] and in [6] were 2962 mL/min/kg and 1420 mL/min/kg, respectively. In series [9], this compound yielded a Cmax of 410 ng/mL. Also, the EC50 in series [2] stood at 37 nM; in series [5], 3250 nM. Besides, the values for the half-life in [3], in series [10] and in [4] were 4.38 h, 1.4 h and more than 16 h, respectively. For the same compound, the solubility in [11] and in series [12] was less than 0.8 µM each time. Also, the AUC in series [13] is 1.53 µg/h/mL.

Regarding `COC(=O)c1ccc([C@@H]2c3[nH]c4ccccc4c3C[C@H](C(=O)OC)N2C(=O)CCl)cc1`, the result in series [14] was Active.

In the case of `COC(=O)[C@H]1Cc2c([nH]c3ccccc23)[C@H](C2CCOCC2)N1C(=O)CCl`, the results for the CL free in series [1] and in [6] were 353 mL/min/kg and 33 mL/min/kg, respectively. Also, the EC50 in [2] is 3130 nM; in [5], more than 10000 nM. The fraction unbound in series [15] was 0.24; in series [8] it was 0.31.

Regarding `COC(=O)[C@H]1Cc2c([nH]c3ccccc23)[C@H](c2ccc(F)cc2Cl)N1C(=O)CCl`, the EC50 is 28 nM in [2] and more than 10000 nM in series [5].

With `COC(=O)[C@H]1Cc2c([nH]c3ccccc23)[C@H](c2ccc(S(C)(=O)=O)nc2)N1C(=O)CCl`, the results for the CL free in series [1] and in series [6] were 235 mL/min/kg and 28.3 mL/min/kg, respectively. Further, the EC50 is 118 nM in [2] and 2450 nM in series [5]. The results for the half-life in series [3] and in [4] were 2.77 h and 3.33 h, respectively. This compound showed a solubility in series [11] of more than 200 µM.

Turning to `COC(=O)[C@H]1Cc2c([nH]c3ccccc23)[C@H](c2ccccc2)N1C(=O)CCl`, the figures for the EC50 in series [2] and in series [5] were 116 nM and more than 10000 nM, respectively.

As for `COC(=O)[C@H]1Cc2c([nH]c3ccccc23)C(c2ccc(F)cc2C(F)(F)F)N1C(=O)CCl` (single isomer, unassigned), the EC50 is 64 nM in series [2] and more than 10000 nM in series [5].

Regarding `CC(C)OC(=O)[C@H]1Cc2c([nH]c3ccccc23)[C@H](c2ccccc2)N1C(=O)CCl`, the CL free in series [1] came to 5810 mL/min/kg; in series [6] it was 505 mL/min/kg. For the same compound, the results for the EC50 in series [2] and in series [5] were 265 nM and more than 10000 nM, respectively. In addition, the half-life in series [3] is 2.77 h; in series [4], 6.18 h. Also, in series [8], the fraction unbound came out at 0.011.

With `COC(=O)[C@H]1Cc2c([nH]c3ccccc23)[C@H](c2ccc(C(F)(F)F)nc2)N1C(=O)CCl`, the CL free in series [1] is 1060 mL/min/kg; in series [6], 147 mL/min/kg. The EC50 in series [2] is 42 nM; in series [5] it was more than 10000 nM. The half-life in series [3] is 2.12 h; in [4] it was 2.63 h.

In the case of `CN(C)C(=O)[C@H]1Cc2c([nH]c3ccccc23)[C@H](c2ccccc2)N1C(=O)CCl`, the figures for the EC50 in series [2] and in [5] were 737 nM and 3740 nM, respectively.

Take `O=C([C@H]1Cc2c([nH]c3ccccc23)[C@H](c2ccccc2)N1C(=O)CCl)N1CCCC1`: the CL free in [1] amounted to 1640 mL/min/kg; in series [6] it was 292 mL/min/kg. The figures for the EC50 in [2] and in series [5] were 1760 nM and more than 10000 nM, respectively. Moreover, the half-life in series [3] stood at 3.6 h; in series [4] it was 7.43 h. For the same compound, in series [8], the fraction unbound stood at 0.061.

In the case of `Cc1noc([C@H]2Cc3c([nH]c4ccccc34)[C@H](c3ccccc3)N2C(=O)CCl)n1`, the values for the CL free in series [1] and in series [6] were 910 mL/min/kg and 118 mL/min/kg, respectively. The EC50 in [2] was 44 nM; in [5] it was more than 10000 nM. In addition, the half-life is 2.68 h in series [3] and 6.73 h in [4]. The compound further yielded a fraction unbound in series [8] of 0.013.
